Laboratory results from PMC5792193 (Proteins, 2009).
Positions of bridges follow the written chain, without caps; N, C: chain ends. Residues, ends and D or L forms follow the SMILES beside them.

Experiments:
[1] = mouse, serum
U87MG tumor xenograft = settings: peptide conjugated to a small molecule fluorochrome or radiolabel; compared to weaker binding peptide conjugates including FN-RGD2 and c(RGDyK); cited from earlier work
[2] = human serum, 37 °C, 24 h, reversed-phase HPLC
[3] = tested on: U87MG cell adhesion to fibronectin-coated plates; test: Integrin-dependent cell adhesion assay; format: cell-based, human; settings: U87MG cells, 2 h
[4] = target: integrin αvβ3 (Homo sapiens) (UniProt P06756); settings: cited from earlier work
Sequence of integrin αvβ3 (Homo sapiens) (P06756 31-1048, chain 1 of 2): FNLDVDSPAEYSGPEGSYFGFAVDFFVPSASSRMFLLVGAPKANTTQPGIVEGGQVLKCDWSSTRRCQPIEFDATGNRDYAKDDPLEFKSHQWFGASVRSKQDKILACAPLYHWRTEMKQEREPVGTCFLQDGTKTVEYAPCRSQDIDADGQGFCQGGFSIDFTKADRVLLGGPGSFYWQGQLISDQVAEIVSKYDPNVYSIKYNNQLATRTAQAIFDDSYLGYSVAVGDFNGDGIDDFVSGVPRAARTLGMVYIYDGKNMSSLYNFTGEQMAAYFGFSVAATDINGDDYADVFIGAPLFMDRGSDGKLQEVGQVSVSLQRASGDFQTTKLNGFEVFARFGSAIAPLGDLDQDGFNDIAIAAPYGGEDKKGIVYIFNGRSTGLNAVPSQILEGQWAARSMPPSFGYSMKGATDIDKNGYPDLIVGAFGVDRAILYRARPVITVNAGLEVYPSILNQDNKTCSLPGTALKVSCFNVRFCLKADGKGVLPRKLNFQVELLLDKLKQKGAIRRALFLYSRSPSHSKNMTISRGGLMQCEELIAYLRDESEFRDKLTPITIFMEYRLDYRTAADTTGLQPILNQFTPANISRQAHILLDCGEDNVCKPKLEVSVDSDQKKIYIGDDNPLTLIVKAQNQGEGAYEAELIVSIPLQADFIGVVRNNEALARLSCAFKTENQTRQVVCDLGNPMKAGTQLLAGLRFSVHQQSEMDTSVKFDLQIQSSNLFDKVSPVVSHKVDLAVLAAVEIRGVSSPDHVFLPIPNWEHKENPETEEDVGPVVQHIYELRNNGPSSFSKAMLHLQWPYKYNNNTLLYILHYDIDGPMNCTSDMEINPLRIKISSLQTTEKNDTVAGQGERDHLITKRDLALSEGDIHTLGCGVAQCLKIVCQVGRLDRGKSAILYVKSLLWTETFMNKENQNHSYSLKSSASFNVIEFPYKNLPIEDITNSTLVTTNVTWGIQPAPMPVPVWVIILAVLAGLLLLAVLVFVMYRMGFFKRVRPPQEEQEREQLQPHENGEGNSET
Sequence of integrin αvβ3 (Homo sapiens) (P05106 27-788, chain 2 of 2, further chain): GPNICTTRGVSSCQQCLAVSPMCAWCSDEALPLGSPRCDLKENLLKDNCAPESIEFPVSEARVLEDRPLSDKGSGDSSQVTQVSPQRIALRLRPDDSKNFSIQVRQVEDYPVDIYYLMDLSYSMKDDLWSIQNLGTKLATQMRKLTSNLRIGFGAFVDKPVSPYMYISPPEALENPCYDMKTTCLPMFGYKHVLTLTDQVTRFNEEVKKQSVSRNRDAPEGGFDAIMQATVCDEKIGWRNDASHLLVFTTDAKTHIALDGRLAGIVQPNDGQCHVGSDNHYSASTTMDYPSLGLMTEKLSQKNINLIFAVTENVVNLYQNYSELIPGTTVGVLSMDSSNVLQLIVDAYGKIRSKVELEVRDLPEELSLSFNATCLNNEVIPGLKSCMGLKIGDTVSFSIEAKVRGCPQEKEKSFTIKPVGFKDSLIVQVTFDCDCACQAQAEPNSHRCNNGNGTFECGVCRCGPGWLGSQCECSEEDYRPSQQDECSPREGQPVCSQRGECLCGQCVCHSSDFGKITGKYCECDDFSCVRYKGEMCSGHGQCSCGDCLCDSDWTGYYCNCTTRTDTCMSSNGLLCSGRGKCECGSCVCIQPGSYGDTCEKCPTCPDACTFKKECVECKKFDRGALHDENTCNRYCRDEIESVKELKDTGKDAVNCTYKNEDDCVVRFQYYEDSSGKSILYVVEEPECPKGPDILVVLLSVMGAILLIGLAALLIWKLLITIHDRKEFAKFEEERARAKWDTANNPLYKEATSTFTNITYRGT

α5β1 integrin = α5β1 integrin (Homo sapiens, UniProt P05556+P08648); settings: cited from earlier work
Sequence of α5β1 integrin (P08648 42-894 limits assumed): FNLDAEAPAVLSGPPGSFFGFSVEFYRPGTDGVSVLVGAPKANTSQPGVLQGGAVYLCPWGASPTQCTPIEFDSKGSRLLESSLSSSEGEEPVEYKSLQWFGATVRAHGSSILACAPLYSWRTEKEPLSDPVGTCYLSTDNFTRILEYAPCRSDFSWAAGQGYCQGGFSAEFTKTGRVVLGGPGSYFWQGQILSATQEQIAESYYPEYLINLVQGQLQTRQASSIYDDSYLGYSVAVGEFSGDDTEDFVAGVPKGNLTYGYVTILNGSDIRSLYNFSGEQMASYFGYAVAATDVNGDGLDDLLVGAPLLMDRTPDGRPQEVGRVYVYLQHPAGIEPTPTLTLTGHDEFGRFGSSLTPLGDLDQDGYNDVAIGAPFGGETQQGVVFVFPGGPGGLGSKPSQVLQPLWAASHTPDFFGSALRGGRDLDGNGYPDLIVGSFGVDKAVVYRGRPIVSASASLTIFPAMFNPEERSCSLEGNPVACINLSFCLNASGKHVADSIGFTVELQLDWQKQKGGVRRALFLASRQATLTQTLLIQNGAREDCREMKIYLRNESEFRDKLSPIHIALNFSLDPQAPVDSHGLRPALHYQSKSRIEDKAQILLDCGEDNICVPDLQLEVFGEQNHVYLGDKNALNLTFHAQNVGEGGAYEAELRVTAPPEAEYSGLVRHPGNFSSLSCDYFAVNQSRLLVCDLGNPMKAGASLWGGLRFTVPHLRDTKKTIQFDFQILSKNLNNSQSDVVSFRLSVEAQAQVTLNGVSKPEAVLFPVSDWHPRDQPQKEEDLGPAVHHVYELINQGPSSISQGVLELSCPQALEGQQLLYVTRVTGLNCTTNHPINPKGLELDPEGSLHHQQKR
Sequence of α5β1 integrin (P08648 895-1049 partner limits assumed): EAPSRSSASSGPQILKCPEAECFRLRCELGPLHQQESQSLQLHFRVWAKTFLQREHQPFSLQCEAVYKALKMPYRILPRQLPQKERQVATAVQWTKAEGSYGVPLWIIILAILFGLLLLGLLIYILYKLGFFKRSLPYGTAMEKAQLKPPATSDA
Sequence of α5β1 integrin (P05556 21-798): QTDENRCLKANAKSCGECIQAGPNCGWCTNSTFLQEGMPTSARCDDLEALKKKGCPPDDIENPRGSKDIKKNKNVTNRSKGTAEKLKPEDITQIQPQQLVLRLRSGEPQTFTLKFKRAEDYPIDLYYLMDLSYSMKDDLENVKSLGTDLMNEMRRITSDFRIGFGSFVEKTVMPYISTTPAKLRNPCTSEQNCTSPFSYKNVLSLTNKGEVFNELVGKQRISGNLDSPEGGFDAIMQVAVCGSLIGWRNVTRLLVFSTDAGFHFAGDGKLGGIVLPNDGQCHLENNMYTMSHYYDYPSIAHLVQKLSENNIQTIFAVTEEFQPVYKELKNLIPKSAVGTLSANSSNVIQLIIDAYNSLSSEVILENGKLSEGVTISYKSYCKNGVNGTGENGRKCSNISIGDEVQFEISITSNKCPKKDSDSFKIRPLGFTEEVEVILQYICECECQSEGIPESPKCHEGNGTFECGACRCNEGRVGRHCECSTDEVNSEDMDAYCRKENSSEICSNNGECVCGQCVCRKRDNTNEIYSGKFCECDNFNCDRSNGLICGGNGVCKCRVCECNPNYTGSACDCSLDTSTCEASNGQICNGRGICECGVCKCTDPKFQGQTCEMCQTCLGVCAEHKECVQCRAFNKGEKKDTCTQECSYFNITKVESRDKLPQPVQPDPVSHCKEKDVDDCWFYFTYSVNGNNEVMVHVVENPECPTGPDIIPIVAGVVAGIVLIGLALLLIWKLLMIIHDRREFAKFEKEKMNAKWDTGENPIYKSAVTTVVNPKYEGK

αvβ3 integrin = αvβ3 integrin (Homo sapiens, UniProt P05106+P06756); settings: cited from earlier work
Sequence of αvβ3 integrin (P06756 31-889 limits assumed): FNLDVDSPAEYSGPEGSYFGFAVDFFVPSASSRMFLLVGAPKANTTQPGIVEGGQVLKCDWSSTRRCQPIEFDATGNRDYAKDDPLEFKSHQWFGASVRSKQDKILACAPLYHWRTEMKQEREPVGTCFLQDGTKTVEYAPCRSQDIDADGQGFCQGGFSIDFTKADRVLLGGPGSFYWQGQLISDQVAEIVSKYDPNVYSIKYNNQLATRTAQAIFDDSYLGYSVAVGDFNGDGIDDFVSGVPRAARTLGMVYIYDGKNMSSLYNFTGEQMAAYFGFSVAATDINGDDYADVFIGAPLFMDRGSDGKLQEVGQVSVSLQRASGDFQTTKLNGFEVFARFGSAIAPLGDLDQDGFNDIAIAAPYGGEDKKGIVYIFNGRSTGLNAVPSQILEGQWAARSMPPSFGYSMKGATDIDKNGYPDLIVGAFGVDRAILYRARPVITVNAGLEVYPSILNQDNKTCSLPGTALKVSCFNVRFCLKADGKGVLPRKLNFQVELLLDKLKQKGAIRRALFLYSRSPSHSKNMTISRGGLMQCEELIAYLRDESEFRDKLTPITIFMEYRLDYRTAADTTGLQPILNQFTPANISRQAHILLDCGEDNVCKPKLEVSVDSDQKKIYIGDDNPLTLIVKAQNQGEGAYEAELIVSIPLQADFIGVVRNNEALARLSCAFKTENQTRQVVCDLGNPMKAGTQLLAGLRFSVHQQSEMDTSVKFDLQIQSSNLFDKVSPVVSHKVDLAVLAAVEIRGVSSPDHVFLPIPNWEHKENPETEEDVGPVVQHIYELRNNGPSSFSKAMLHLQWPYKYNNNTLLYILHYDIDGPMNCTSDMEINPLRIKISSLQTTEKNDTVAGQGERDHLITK
Sequence of αvβ3 integrin (P06756 891-1048 partner limits assumed): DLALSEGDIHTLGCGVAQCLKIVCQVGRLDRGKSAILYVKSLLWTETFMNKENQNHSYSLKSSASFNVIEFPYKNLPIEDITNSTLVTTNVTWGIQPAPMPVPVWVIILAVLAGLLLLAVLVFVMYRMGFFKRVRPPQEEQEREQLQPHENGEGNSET
Sequence of αvβ3 integrin (P05106 27-788): as the sequence (P05106 27-788, chain 2 of 2, further chain) above

Sequence of Echistatin (P17347 131-179): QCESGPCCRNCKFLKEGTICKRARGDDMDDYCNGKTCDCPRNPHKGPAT

## CC(C)C[C@@H]1NC(=O)[C@@H]2CSSC[C@@H](C(=O)NCC(=O)O)NC(=O)[C@H](Cc3ccccc3)NC(=O)CNC(=O)[C@H](CC(N)=O)NC(=O)[C@@H]3CCCN3C(=O)CNC(=O)[C@@H]3CSSC[C@H](NC(=O)[C@H](CO)NC(=O)[C@H]([C@@H](C)O)NC(=O)[C@@H]4CCCN4C(=O)[C@H](C)NC(=O)[C@H](Cc4c[nH]c5ccccc45)NC(=O)[C@H](CC(=O)O)NC(=O)CNC(=O)[C@H](CCCNC(=N)N)NC(=O)CNC(=O)[C@H](CCC(N)=O)NC(=O)[C@@H]4CCCN4C(=O)[C@@H](NC(=O)CN)CSSC[C@H](NC(=O)CNC(=O)[C@H](C)NC1=O)C(=O)N[C@@H](C(C)C)C(=O)N3)C(=O)N[C@@H](CO)C(=O)N[C@@H](CCC(N)=O)C(=O)N[C@@H](CC(=O)O)C(=O)N[C@@H](CO)C(=O)N[C@@H](CC(=O)O)C(=O)N2 [2.5D] (H-GCPQGRGDWAPTSCSQDSDCLAGCVCGPNGFCG-OH; disulfide 2-24, 14-26, 20-32)
[1]
  remaining at 24 h: ~90%
U87MG tumor xenograft
  tumor uptake (in words): significant increase in tumor uptake
[2]
  intact peptide remaining: approximately 90%

## CC(C)C[C@@H]1NC(=O)[C@@H]2CSSC[C@@H](C(=O)NCC(=O)O)NC(=O)[C@H](Cc3ccccc3)NC(=O)CNC(=O)[C@H](CC(N)=O)NC(=O)[C@@H]3CCCN3C(=O)CNC(=O)[C@@H]3CSSC[C@H](NC(=O)[C@H]([C@@H](C)O)NC(=O)[C@H](CC(C)C)NC(=O)[C@@H]4CCCN4C(=O)[C@@H]4CCCN4C(=O)[C@H](CC(N)=O)NC(=O)[C@H](CC(=O)O)NC(=O)CNC(=O)[C@H](CCCNC(=N)N)NC(=O)[C@@H]4CCCN4C(=O)[C@H](CCCNC(=N)N)NC(=O)[C@@H]4CCCN4C(=O)[C@@H](NC(=O)CN)CSSC[C@H](NC(=O)CNC(=O)[C@H](C)NC1=O)C(=O)N[C@@H](C(C)C)C(=O)N3)C(=O)N[C@@H](CO)C(=O)N[C@@H](CCC(N)=O)C(=O)N[C@@H](CC(=O)O)C(=O)N[C@@H](CO)C(=O)N[C@@H](CC(=O)O)C(=O)N2 [2.5F] (H-GCPRPRGDNPPLTCSQDSDCLAGCVCGPNGFCG-OH; disulfide 2-24, 14-26, 20-32)
U87MG tumor xenograft
  tumor uptake (in words): significant increase in tumor uptake

## Echistatin
[3]
  block of U87MG cell adhesion to fibronectin-coated plates (in words): able to block

## Echistatin (from UniProt P17347)
[4]
  Kd: 0.36 nM

## Ac-PHSCN-NH2 [ATN-161]
α5β1 integrin
  binding affinity to α5β1 integrin (in words): micromolar affinity
αvβ3 integrin
  binding affinity to αvβ3 integrin (in words): micromolar affinity
